Holding throughout (assay): inhibition of tumour cell growth, NCI panel, 48 h
The subject of assay [1] is OVCAR-4.
Assay [2] relates to UACC-257.
For assay [3], the system named is DU-145.
The subject of assay [4] is ACHN.
The test system of assay [5] is NCI-H23.
In assay [6] the test system is NCI-H460.
The test system of assay [7] is OVCAR-3.
Assay [8] concerns HOP-62.
Assay [9] deals with SN12C.
Assay [10] has as its system CCRF-CEM.
In assay [11] the test system is 786-0.
The subject of assay [12] is OVCAR-5.
Assay [13] relates to A498.
Assay [14] relates to RPMI-8226.
Assay [15] concerns HOP-92.
In assay [16] the test system is A549.
For assay [17], the system named is TK-10.
Assay [18] concerns RXF 393.
Assay [19] relates to NCI-H226.
Assay [20] relates to OVCAR-8.

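A five-concentration, 48-hour dose response in 96-well plates underlies each endpoint, interpolated linearly between surrounding concentrations. GI50 = concentration required for 50% inhibition of growth.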 Calls of active or inactive are those of the source. No stated cut-off is given here; in the data, active = GI50 up to about 1.1 µM and inactive = higher.

In the case of `c1ccc2c(c1)[nH]c1c3ccccc3sc21`, the GI50 is > 100 µM (inactive) in assay [1]; 36.5 µM (inactive) in assay [2]; > 100 µM (inactive) in assay [3]; > 100 µM (inactive) in [4]; > 100 µM (inactive) in [5]; > 100 µM (inactive) in [6]. Moreover, the GI50 in assay [7], in [8], in assay [9], in assay [10], in assay [11] and in assay [12] was > 100 µM (inactive) in each case. In addition, the GI50 in assay [13] was > 100 µM (inactive); in assay [14] it was > 100 µM (inactive); in [15], > 100 µM (inactive); in [16], 77.4 µM (inactive); in [17], > 100 µM (inactive); in assay [18], 26.5 µM (inactive). Besides, the GI50 in [19] and in assay [20] was > 100 µM (inactive) in each case.

On to `CCN(CC)CCN1C=CC(C)C(C(=O)O)C1C(N)=O` (stereo not given), for which the GI50 in assay [1], in [2], in [3], in [4], in assay [5] and in assay [6] was > 100 µM (inactive) in each case. Moreover, the GI50 in assay [7], in assay [8], in [9], in assay [10], in assay [11] and in assay [12] was > 100 µM (inactive) each time. The GI50 in [13], in assay [14], in assay [15], in assay [16], in assay [17] and in assay [18] was > 100 µM (inactive) in each case. For the same compound, the GI50 in assay [19] and in assay [20] was > 100 µM (inactive) in each case.

As for `N#CC(NNC(=O)c1ccccc1O)c1c(O)ccc2ccccc12` (stereo not given), the GI50 in assay [1] is 2.58 µM (inactive); in assay [2], 3.67 µM (inactive); in [3], 2.54 µM (inactive); in [4], 5.04 µM (inactive); in assay [5], 4.65 µM (inactive); in assay [6] it was 2.99 µM (inactive). The GI50 in assay [7] is 2.54 µM (inactive); in assay [8] it was 3.33 µM (inactive); in assay [9] it was 7.64 µM (inactive); in assay [10], 0.962 µM (active); in assay [11], 4.56 µM (inactive); in [12], 4.38 µM (inactive). Also, the GI50 in assay [13] is 34.7 µM (inactive); in assay [14], 3.48 µM (inactive); in assay [15], 5.71 µM (inactive); in assay [16], 2.94 µM (inactive); in [17], 4.7 µM (inactive); in assay [18], 2.75 µM (inactive). For the same compound, the results for the GI50 in [19] and in [20] were 3.71 µM (inactive) and 3.16 µM (inactive), respectively.

`Cc1ccc(S(=O)(=O)/N=C(\NN)Nc2ccc(Cl)cc2)cc1`: the GI50 in assay [1], in [2], in assay [3], in assay [4], in assay [5] and in assay [6] was > 100 µM (inactive) in each case. The GI50 in assay [7], in [8], in assay [9], in [10], in assay [11] and in assay [12] was > 100 µM (inactive) each time. Further, the GI50 in [13] is > 100 µM (inactive); in [14], > 100 µM (inactive); in assay [15], > 100 µM (inactive); in assay [16] it was > 100 µM (inactive); in [17] it was > 100 µM (inactive); in assay [18] it was 60.7 µM (inactive). Moreover, the values for the GI50 in assay [19] and in assay [20] were 58.3 µM (inactive) and > 100 µM (inactive), respectively.

For the compound `CC(CCN)(CCN)[N+](=O)[O-]`, the GI50 in [1], in [2], in assay [3], in assay [4], in assay [5] and in assay [6] was > 100 µM (inactive) throughout. Further, the GI50 in assay [7] was > 100 µM (inactive); in [8], > 100 µM (inactive); in assay [9], 77.3 µM (inactive); in [10], > 100 µM (inactive); in assay [11] it was > 100 µM (inactive); in assay [12] it was > 100 µM (inactive). Besides, the GI50 in assay [13], in [14], in assay [15], in assay [16], in [17] and in assay [18] was > 100 µM (inactive) each time. Besides, the GI50 in [19] and in [20] was > 100 µM (inactive) each time.

For the compound `CC(=O)Nc1[nH]c(C#N)nc1C#N`, the GI50 in [1], in [2], in assay [3], in [4], in assay [5] and in assay [6] was > 100 µM (inactive) each time. The GI50 in assay [7], in assay [8], in assay [9], in assay [10], in assay [11] and in assay [12] was > 100 µM (inactive) each time. In addition, the GI50 in assay [13], in assay [14], in assay [15], in assay [16], in [17] and in assay [18] was > 100 µM (inactive) throughout. For the same compound, the GI50 in [19] and in assay [20] was > 100 µM (inactive) each time.

In the case of `CC(=O)c1cccc(Nc2nc3ccccc3c3occc23)c1`, the GI50 was 16.2 µM (inactive) in assay [1]; > 100 µM (inactive) in assay [2]; 33.6 µM (inactive) in [3]; 14.3 µM (inactive) in assay [4]; 16.7 µM (inactive) in assay [5]; 20.5 µM (inactive) in [6]. Also, the GI50 was 34.2 µM (inactive) in assay [7]; 14 µM (inactive) in assay [8]; 13.2 µM (inactive) in assay [9]; > 100 µM (inactive) in [10]; 16.7 µM (inactive) in assay [11]; 53.6 µM (inactive) in [12]. In addition, the GI50 is 9.98 µM (inactive) in [13]; > 100 µM (inactive) in assay [14]; 9.64 µM (inactive) in assay [15]; 13.5 µM (inactive) in [16]; 15 µM (inactive) in [17]; 10.8 µM (inactive) in assay [18]. Also, the GI50 in [19] was 2.03 µM (inactive); in assay [20], 20.4 µM (inactive).

Take `N=C(CCl)NC1CN2CCC1CC2` (stereo not given): the GI50 in assay [1] was 59 µM (inactive); in [2], > 100 µM (inactive); in assay [3], > 100 µM (inactive); in assay [4] it was 87.7 µM (inactive); in assay [5], > 100 µM (inactive); in assay [6] it was > 100 µM (inactive). In addition, the GI50 in assay [7] was > 100 µM (inactive); in [8] it was > 100 µM (inactive); in assay [9] it was 66.7 µM (inactive); in assay [10] it was 18.6 µM (inactive); in assay [11], 97.5 µM (inactive); in assay [12], 75 µM (inactive). Moreover, the GI50 in assay [13], in [14], in assay [15], in assay [16], in assay [17] and in assay [18] was > 100 µM (inactive) each time. Besides, the GI50 in assay [19] and in assay [20] was > 100 µM (inactive) each time.

Consider `COc1c(-c2nc3ccc(N4CCN(C)CC4)cc3[nH]2)cc(OC)c2[nH]c(COC(C)=O)nc12`, for which the GI50 in assay [1] is 29.8 µM (inactive); in assay [2] it was 53.5 µM (inactive); in assay [3], 26.1 µM (inactive); in assay [4], 63.4 µM (inactive); in assay [5], 65.9 µM (inactive); in assay [6] it was 43.1 µM (inactive). Besides, the GI50 in [7] is > 100 µM (inactive); in assay [8], 67.1 µM (inactive); in assay [9], 41.4 µM (inactive); in assay [10] it was 29.2 µM (inactive); in [11] it was 36.6 µM (inactive); in assay [12], > 100 µM (inactive). Besides, the GI50 in [13] was > 100 µM (inactive); in assay [14] it was 34.7 µM (inactive); in assay [15], > 100 µM (inactive); in assay [16], 62.1 µM (inactive); in assay [17], 71.4 µM (inactive); in assay [18], 11.8 µM (inactive). Further, the GI50 in assay [19] is > 100 µM (inactive); in assay [20], 55.1 µM (inactive).

With `O=C1Nc2ccccc2/C1=C\c1c(Cl)n(-c2ccccc2)c2ccccc12`, the GI50 is 5.02 µM (inactive) in [1]; 9.2 µM (inactive) in assay [2]; 2.79 µM (inactive) in assay [3]; 5.75 µM (inactive) in assay [4]; 2.45 µM (inactive) in assay [5]; 3.18 µM (inactive) in assay [6]. Further, the GI50 in [7] is 1.92 µM (inactive); in assay [8] it was 4.68 µM (inactive); in assay [9], 3.61 µM (inactive); in assay [10], 6.65 µM (inactive); in assay [11], 2.67 µM (inactive); in assay [12], 3.08 µM (inactive). The GI50 in assay [13] was 6.7 µM (inactive); in [14], 4.92 µM (inactive); in assay [15], 0.946 µM (active); in [16] it was 3.52 µM (inactive); in [17], 3.95 µM (inactive); in assay [18], 2.14 µM (inactive). The GI50 in [19] was 1.7 µM (inactive); in assay [20], 2.71 µM (inactive).

(Values after ChEMBL document CHEMBL1201862, “PubChem BioAssay data set” (2004).)
